Experimental data reported in ChEMBL document CHEMBL1201862, “PubChem BioAssay data set” (2004).
Activity calls are given as the source filed them.

Assays:
cells [1] = format: functional, cell-based
[2] = target: T1, Trace amine-associated receptor 1 (Homo sapiens, UniProt Q96RJ0); experiment: Fluorescence-based cell-based high throughput dose response assay to identify agonists of the human trace amine associated receptor 1 (TAAR1).; format: functional
T1 sequence (Q96RJ0 whole entry): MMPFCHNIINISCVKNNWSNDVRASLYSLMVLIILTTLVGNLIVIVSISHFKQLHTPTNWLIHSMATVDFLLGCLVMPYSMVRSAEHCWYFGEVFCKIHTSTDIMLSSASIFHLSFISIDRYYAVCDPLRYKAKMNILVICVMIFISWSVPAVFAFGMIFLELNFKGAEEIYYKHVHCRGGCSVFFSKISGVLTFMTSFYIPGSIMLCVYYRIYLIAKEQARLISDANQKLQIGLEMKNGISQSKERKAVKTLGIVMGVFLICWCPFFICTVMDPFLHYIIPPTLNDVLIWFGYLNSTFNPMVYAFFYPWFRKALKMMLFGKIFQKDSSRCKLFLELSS

[3] = target: T1, Trace amine-associated receptor 1; experiment: Counterscreen for agonists of the human trace amine associated receptor 1 (hTAAR1): Fluorescence-based cell-based high throughput dose response assay to identify hTAAR1 agonist that also desensitize TAAR1 receptor response.; format: functional
cells [4] = format: functional, cell-based; remark: listed apart in the source
[5] = target: T2, Heat shock factor protein 1 (Mus musculus, UniProt P38532); experiment: decrease of HSF1-responsive luciferase luminescence – cell-based, NIH3T3, dose retest, confirmation (AID 2382); format: functional;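 further: NIH3T3 fibroblasts with HSF1-driven luciferase reporter stressed by proteasome inhibitor MG132; luminescence from HSF1-driven luciferase expression after 8 hours of MG132 stress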
T2 sequence (P38532 whole entry): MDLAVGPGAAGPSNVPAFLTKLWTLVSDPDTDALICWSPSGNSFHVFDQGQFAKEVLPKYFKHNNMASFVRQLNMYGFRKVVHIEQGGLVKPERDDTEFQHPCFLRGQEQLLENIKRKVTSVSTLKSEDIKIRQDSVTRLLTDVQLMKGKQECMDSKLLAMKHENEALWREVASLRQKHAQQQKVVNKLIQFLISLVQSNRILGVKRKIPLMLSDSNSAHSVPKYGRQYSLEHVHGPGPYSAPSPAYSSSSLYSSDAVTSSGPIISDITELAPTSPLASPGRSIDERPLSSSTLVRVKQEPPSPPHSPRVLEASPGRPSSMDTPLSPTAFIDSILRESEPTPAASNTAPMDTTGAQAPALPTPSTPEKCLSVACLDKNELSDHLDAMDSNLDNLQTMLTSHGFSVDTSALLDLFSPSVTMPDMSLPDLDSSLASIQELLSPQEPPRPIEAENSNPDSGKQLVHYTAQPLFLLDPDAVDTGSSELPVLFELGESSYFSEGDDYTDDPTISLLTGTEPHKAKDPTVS

[6] = target: Ras and Rab interactor 1/Tyrosine-protein kinase ABL1 (Homo sapiens, UniProt P00519+Q13671); format: functional;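 further: biochemical TR-FRET dose-response test measuring inhibition of binding between Rin1 and Abl proteins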
Ras and Rab interactor 1/Tyrosine-protein kinase ABL1, sequence (P00519 whole entry): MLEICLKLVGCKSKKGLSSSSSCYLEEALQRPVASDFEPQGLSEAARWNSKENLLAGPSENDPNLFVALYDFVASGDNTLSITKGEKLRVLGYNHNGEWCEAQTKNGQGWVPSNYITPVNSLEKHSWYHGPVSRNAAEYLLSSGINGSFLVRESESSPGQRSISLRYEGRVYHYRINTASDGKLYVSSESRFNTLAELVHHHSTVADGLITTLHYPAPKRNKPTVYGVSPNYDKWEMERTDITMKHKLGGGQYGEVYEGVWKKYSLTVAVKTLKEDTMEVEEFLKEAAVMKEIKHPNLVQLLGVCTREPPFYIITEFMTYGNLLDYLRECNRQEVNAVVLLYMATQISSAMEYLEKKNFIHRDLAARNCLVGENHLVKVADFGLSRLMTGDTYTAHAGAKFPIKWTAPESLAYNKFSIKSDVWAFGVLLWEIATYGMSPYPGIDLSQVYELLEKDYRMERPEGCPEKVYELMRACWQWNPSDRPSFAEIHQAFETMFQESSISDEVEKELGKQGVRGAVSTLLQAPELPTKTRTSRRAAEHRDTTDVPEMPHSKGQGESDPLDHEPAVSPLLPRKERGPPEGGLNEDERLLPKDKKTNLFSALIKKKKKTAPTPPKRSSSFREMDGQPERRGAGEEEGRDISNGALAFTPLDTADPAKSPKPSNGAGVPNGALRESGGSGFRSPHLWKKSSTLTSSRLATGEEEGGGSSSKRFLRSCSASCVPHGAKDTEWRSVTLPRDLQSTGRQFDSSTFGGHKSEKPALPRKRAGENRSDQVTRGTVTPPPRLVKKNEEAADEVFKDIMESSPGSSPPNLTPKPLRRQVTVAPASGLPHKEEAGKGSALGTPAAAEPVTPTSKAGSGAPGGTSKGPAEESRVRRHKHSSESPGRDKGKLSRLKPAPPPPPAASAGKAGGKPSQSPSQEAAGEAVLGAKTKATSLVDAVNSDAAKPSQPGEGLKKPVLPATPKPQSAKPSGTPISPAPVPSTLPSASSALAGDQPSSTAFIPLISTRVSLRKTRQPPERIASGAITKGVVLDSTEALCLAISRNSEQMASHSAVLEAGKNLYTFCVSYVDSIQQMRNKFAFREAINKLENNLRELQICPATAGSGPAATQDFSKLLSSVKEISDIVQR
Ras and Rab interactor 1/Tyrosine-protein kinase ABL1, sequence (Q13671 whole entry): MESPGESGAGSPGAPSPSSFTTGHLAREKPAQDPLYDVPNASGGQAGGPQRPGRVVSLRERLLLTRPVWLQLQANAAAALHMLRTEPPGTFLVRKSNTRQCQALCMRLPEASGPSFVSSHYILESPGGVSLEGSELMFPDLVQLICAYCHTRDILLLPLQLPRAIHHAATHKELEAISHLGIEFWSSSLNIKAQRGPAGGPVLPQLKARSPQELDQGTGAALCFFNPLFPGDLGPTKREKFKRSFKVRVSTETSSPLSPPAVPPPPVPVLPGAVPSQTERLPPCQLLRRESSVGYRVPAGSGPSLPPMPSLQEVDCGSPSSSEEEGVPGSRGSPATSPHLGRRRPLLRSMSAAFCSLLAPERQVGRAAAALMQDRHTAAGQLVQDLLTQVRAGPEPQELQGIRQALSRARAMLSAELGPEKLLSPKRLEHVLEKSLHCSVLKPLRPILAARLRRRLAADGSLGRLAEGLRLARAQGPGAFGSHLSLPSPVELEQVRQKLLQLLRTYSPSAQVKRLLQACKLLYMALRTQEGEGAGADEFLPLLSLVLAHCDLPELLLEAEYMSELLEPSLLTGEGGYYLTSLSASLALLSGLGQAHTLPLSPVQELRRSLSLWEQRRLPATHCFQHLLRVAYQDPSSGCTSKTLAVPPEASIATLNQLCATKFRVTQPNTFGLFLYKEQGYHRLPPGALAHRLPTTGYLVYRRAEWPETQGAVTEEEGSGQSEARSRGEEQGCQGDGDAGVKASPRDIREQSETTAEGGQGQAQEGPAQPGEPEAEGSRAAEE

[7] = target: T3, DNA repair and recombination protein RAD54-like (Homo sapiens, UniProt Q92698); experiment: RAD54 Holliday junction migration blockers – biochemical, fluorescence, cherry-picked samples, dose series, confirmation (AID 651657); format: functional
T3 sequence (Q92698 whole entry): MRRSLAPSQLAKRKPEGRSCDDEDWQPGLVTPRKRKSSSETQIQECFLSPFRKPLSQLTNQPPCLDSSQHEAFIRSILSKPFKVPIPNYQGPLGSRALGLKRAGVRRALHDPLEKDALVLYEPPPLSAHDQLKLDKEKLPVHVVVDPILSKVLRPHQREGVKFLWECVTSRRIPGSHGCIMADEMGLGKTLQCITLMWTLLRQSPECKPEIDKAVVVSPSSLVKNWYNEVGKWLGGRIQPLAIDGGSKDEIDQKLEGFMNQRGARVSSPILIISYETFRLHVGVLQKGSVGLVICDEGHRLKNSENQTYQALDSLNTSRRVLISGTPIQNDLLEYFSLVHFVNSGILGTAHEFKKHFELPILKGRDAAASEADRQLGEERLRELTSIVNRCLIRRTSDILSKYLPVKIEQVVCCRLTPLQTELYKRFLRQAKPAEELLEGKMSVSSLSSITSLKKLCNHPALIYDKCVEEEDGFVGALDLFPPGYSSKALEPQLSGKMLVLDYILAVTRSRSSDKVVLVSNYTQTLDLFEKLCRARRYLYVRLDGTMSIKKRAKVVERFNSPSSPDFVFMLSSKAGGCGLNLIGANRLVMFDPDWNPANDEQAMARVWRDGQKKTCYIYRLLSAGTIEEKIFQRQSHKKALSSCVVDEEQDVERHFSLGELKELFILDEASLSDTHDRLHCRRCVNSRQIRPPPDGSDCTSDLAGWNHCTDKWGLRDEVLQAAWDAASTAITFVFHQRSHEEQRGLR

[8] = target: T4, Hepatocyte nuclear factor 4-alpha (Homo sapiens, UniProt P41235); format: functional, cell-based;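 further: biochemical luminescence-based dose-response counterscreen measuring inhibition of HNF4 dimerization, run alongside a screen for blockers of ABHD5–perilipin-5 interaction; split luciferase complementation of HNF4 fusion proteins in cell lysate measuring dimerization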
T4 sequence (P41235 whole entry): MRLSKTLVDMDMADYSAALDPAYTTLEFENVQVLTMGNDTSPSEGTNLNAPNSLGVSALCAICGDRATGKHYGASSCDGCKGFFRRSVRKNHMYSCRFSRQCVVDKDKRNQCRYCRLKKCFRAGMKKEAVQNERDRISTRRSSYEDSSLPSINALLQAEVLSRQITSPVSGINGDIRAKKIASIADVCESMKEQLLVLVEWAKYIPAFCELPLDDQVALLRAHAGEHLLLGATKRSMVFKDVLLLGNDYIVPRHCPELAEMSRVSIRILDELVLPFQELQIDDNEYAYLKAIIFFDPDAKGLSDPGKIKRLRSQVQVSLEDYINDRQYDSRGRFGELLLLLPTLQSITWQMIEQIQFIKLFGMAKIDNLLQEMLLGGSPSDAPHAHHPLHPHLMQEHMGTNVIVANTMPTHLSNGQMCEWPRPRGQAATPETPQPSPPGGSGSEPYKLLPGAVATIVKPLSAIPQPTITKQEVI

[9] = target: Dual specificity tyrosine-phosphorylation-regulated kinase 1A (Rattus norvegicus, UniProt Q63470); format: biochemical, Homo sapiens
[10] = target: 26S proteasome non-ATPase regulatory subunit 14 (Homo sapiens, UniProt O00487); experiment: inhibition of proteasome subunit RPN11 – biochemical, fluorescence polarization, uHTS hits, confirmation (AID 602368); format: functional
26S proteasome non-ATPase regulatory subunit 14, sequence (O00487 whole entry): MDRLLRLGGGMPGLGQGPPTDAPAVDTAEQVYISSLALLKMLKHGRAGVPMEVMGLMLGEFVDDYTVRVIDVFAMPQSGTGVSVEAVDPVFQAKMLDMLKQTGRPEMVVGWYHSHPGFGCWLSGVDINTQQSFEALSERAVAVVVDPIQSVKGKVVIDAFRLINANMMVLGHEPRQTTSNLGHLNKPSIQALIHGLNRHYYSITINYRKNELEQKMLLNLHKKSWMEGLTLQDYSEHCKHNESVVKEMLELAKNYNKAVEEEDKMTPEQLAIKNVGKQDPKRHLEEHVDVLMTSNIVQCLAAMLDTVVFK

[11] = target: 72 kDa type IV collagenase (Homo sapiens, UniProt P08253); experiment: Dose Response validation of uHTS RPN11 inhibitor hits using a MMP-2 Fluorescence assay.; format: functional
72 kDa type IV collagenase, sequence (P08253 whole entry): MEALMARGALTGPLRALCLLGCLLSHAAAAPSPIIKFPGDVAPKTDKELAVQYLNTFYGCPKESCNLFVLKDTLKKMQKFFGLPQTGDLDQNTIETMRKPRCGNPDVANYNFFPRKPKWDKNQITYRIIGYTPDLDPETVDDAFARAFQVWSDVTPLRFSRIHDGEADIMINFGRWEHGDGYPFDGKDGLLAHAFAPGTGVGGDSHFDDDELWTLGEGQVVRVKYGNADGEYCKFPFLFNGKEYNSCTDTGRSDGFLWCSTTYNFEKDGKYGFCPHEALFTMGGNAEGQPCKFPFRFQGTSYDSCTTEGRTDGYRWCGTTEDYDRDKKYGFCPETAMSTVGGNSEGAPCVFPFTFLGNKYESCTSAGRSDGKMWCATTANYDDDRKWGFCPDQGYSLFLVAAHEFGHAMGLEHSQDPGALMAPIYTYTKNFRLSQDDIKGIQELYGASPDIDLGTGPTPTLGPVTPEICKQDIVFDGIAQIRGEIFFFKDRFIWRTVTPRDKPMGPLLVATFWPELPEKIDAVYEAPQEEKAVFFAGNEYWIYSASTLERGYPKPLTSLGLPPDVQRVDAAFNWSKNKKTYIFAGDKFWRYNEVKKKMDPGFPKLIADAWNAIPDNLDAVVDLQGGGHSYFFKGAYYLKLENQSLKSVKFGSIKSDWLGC

Prothrombin = Prothrombin (Bos taurus, UniProt P00735); experiment: thrombin protease inhibitors – biochemical, fluorescence polarization, uHTS hits, dose response (AID 602369); format: functional
[12] = target: T5, Rac GTPase-activating protein 1 (Homo sapiens, UniProt Q9H0H5); experiment: blockers of MgcRacGAP-driven Rac1 GTP hydrolysis – biochemical, ADP Hunter fluorescence, primary and confirmatory, confirmation (AID 624330); format: functional
T5 sequence (Q9H0H5 whole entry): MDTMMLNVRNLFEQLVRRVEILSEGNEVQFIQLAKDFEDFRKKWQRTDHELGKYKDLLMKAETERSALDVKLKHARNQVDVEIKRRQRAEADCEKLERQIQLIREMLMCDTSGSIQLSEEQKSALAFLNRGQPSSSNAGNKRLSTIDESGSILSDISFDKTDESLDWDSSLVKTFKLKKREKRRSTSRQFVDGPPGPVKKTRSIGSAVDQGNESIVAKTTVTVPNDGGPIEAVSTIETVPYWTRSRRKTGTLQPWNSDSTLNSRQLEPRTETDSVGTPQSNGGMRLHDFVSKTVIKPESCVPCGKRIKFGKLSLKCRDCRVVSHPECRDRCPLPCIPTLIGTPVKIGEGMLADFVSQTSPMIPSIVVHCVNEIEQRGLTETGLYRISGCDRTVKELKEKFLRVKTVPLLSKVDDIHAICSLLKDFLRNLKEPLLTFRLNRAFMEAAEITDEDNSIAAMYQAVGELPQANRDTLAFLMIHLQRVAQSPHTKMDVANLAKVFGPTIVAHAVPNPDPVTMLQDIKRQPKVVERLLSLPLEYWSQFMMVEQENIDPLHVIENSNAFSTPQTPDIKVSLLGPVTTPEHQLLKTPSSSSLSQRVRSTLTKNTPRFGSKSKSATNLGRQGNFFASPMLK

[13] = test system: Streptococcus sp. 'group A'; experiment: Streptococcus pyogenes SK(-)GAS viability under kanamycin – luminescence, BacTiterGlo, confirmation, counter-screen for streptokinase expression inhibitor project, dose response (AID 1900); format: functional, organism-based
Streptokinase A = target: T6, Streptokinase A (Streptococcus pyogenes serotype M1, UniProt P10520); experiment: viability-normalized secreted streptokinase activity reduction – plasminogen activation absorbance, OD405, dose response (AID 1914); format: functional, Streptococcus pyogenes M1 GAS;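 further: secreted streptokinase activity via plasminogen activation per viability signal from cell pellet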
T6 sequence (P10520 whole entry): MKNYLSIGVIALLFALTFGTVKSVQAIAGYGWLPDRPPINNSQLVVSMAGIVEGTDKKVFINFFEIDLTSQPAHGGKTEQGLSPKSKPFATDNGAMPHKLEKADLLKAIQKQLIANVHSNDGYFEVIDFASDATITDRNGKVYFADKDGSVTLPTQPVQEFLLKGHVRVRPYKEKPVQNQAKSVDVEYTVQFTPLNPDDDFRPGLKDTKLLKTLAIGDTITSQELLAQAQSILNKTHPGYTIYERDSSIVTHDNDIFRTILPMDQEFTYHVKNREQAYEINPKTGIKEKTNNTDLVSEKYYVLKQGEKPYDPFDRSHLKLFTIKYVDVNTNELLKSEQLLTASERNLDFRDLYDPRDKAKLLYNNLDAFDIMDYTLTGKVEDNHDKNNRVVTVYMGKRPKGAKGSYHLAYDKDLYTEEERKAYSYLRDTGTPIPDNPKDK

Streptococcus = experiment: GAS UMAA2166 growth inhibition – luminescence, BacTiterGlo, counter-screen for streptokinase expression inhibitor project, dose response (AID 1915); format: functional, organism-based;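 further: potency for reduction of bacterial viability or growth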
[14] = target: DNA (cytosine-5)-methyltransferase 1 (Homo sapiens, UniProt P26358); experiment: inhibition of DNA methylation by DNMT1 – biochemical, fluorescent molecular beacon, confirmation (AID 602386); format: functional
DNA (cytosine-5)-methyltransferase 1, sequence (P26358 whole entry): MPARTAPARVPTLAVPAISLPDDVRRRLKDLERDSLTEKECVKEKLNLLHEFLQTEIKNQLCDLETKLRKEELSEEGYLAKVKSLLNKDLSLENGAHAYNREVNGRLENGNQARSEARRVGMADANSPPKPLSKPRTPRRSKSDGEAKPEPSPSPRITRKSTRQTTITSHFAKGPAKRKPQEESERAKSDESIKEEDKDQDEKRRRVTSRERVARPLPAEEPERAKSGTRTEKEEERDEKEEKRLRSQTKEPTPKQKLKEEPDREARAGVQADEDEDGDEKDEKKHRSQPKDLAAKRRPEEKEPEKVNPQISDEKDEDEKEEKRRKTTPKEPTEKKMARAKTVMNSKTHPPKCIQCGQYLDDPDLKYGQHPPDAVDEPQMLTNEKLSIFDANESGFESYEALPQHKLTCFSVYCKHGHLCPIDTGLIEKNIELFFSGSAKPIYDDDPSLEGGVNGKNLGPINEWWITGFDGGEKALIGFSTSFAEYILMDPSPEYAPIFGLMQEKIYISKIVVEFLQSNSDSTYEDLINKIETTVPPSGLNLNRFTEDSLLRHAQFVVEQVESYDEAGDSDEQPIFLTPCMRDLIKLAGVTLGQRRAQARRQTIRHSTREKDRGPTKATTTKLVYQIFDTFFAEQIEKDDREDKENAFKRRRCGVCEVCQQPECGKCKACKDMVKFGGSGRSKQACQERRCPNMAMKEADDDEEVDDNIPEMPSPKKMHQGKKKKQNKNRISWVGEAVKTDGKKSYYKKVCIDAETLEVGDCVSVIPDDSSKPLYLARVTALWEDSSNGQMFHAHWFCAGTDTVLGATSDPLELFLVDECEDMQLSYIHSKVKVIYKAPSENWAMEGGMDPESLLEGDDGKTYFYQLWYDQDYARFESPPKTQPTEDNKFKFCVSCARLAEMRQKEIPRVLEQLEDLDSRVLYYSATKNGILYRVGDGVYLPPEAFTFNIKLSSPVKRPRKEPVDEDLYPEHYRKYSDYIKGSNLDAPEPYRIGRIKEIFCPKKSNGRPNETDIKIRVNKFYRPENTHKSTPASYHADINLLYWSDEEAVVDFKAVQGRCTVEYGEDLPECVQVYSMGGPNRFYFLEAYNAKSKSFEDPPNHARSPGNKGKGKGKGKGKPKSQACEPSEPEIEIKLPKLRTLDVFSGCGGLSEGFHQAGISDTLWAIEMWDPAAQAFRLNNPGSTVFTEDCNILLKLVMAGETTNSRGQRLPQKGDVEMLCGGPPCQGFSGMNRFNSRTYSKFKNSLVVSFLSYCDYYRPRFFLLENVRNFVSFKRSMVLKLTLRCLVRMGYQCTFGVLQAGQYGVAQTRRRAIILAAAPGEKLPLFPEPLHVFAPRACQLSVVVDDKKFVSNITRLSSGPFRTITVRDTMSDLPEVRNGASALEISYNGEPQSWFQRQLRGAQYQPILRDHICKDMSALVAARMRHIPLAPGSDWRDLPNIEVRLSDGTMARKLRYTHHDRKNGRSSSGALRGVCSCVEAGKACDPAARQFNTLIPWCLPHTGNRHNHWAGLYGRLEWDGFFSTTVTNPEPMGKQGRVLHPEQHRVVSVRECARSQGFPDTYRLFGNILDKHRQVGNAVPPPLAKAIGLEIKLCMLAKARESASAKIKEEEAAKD

[15] = target: T7, DNA repair protein RAD52 homolog (Homo sapiens, UniProt P43351); format: functional, biochemical
T7 sequence (P43351 whole entry): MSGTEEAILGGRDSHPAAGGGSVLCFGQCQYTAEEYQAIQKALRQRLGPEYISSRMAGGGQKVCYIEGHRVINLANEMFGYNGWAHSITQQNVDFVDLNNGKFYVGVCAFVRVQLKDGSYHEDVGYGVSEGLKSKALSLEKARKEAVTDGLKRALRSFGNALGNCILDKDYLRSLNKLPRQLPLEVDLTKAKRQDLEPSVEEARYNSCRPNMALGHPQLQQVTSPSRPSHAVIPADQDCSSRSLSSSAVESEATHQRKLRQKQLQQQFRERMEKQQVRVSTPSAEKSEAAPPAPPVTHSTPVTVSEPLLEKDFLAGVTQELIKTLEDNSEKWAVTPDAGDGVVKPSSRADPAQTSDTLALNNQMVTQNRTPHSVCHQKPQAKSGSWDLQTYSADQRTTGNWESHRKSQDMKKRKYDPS

[16] = general mammalian cell viability loss – inhibitor set, cherry-pick, set 2, cytotoxicity control for miR-122 modulator project, dose response (AID 720697); format: functional, cell-based
[17] = viability loss in HeLa cells – cytotoxicity control for MgcRacGAP inhibitor project, dose response (AID 624300); format: functional
[18] = A549 cell cytotoxicity, dose response, cytotoxicity control, plate reader, cherry-pick, antagonist series (AID 743412); format: functional, cell-based
[19] = toxicity toward HepG2 liver cells – cell-based, plate reader, cherry-pick, antagonist series, cytotoxicity control, dose response (AID 743416); format: functional
[20] = blockers of bursicon-stimulated LGR2 cAMP reporter – cell-based, HEK293, CRE-luciferase reporter, cherry pick, set 2, dose response (AID 743343); format: functional;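 further: transfected cells were stimulated with diluted bursicon conditioned medium after compound addition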

Cc1cc(C(=O)CSc2nnnn2-c2ccccc2)c(C)n1CCc1ccccc1
IC50 (cells [1]): > 29.9 µM (inactive)
EC50 [2]: 3.4 µM (active)
IC50 [3]: 6.28 µM (active)
EC50 (cells [4]): > 29.9 µM (inactive)

C/C(=N\CCc1ccccc1)C1=C(O)SCC1=O
EC50 [5]: > 195 µM (not active)
IC50 (cells [1]): > 29.9 µM (inactive)
EC50 [2]: 1.55 µM (active)
IC50 [3]: 9.57 µM (active)
EC50 (cells [4]): > 29.9 µM (inactive)

COC(=O)CCSCc1cn2cc(Cl)ccc2n1
IC50 [6]: 8.83 µM (active)

O=C(Nc1cccc([N+](=O)[O-])c1)c1cc(S(=O)(=O)N2CCOCC2)cs1
AC50 [7]: 21.8 µM (active)

COCCN(CCOC)C(=O)CSc1ccc(S(=O)(=O)N2CCN(C)CC2)cn1
IC50 [6]: 20.5 µM (inactive)

CCOc1ccccc1N(C(=O)c1snc(C(N)=O)c1N)C(C(=O)NCC1CCCO1)c1ccc2ncccc2c1 (stereo unspecified)
IC50 [6]: 25.1 µM (inactive)

COc1ccc(NC(=O)C(c2ccc(C#N)cc2)n2c(=O)c(-c3ccco3)nc3ccccc32)cc1 (stereo unspecified)
IC50 [8]: 13.5 µM (inactive)

COc1cc(/C=C2\SC(N)=NC2=O)cc(Cl)c1O
AC50 [9]: 18.6 µM (active)
IC50 [10]: 26.8 µM (active)
IC50 [11]: > 100 µM (inactive)
IC50 (Prothrombin): 32.8 µM (active)
IC50 [12]: 43.6 µM (active)

COc1ccc(-c2nn(-c3ccccc3)cc2/C=C2/SC(=S)N(CCC(=O)O)C2=O)cc1
EC50 [13]: 2.14 µM (active)
EC50 (Streptokinase A): > 150 µM (not active)
EC50 (Streptococcus): 4.88 µM (active)
IC50 [14]: 5.06 µM (active)

CC(C)(C)NC(=O)C(c1ccccc1)n1c(=O)c(-c2ccco2)nc2ccccc21 (stereo unspecified)
IC50 [8]: 1.4 µM (active)

CC(=O)Nc1cc(-c2ccc(N3CCN(C)CC3)cc2)cn2c(-c3cccc(C(C)=O)c3)cnc12
AC50 [7]: 14.8 µM (active)
AC50 [15]: 4.9 µM (active)

COc1cccc(C(=O)N[C@H](C(=O)N2CCC[C@H]2C(=O)NCCc2ccccc2Cl)C(C)C)c1
IC50 (cells [1]): > 29.9 µM (inactive)
EC50 [2]: 1.08 µM (active)
IC50 [3]: 2.22 µM (active)
EC50 (cells [4]): > 29.9 µM (inactive)

CCCC(=O)Nc1ccc2c(c1)C(=O)N(C)[C@@H]1CC[C@H](CC(=O)Nc3cn(C)nc3C)O[C@@H]1CO2
AC50 [16]: 0.499 µM (active)

Oc1ccc(-c2csc(-c3cccnc3)n2)c(O)c1
CC50 [17]: 100 µM (active)
IC50 [12]: 30.9 µM (active)
AC50 [18]: 23.6 µM (active)
AC50 [19]: 42.4 µM (active)
AC50 [20]: 44.3 µM (active)
